Experimental data reported in patent publication US20250032477A1, “COMPOUNDS, PHARMACEUTICAL COMPOSITIONS, AND METHODS FOR THE TREATMENT, PREVENTION, OR MANAGEMENT OF HYPERPROLIFERATIVE DISORDERS” (VINCERX PHARMA GMBH, priority 2021, published 2025).
Where a name gives a salt, the structure may show the parent alone. Read-outs that look alike come from different tables or passages of the source.

Assays:
SUM149 [1] = experiment: Cytotoxicity in vitro in the presence and absence of elastase (MTT); assay type: cell-based
Procedure: (§1) Cultivation of cells was performed according to standard procedures with the media recommended by the provider. The cells, in a total volume of 100 μL, were seeded in a 96-well plate with a white bottom (#3610). After a 24 h incubation period at 37° C. and […], the medium was exchanged by adding 90 μL fresh medium. The treatment started by adding the test compound in 10 μL of culture medium to the cells in triplicates. Concentrations ranging from 10^−5 M to 10^−13 M were chosen. Two identically treated sets of samples were prepared. One set was treated with the test compound alone, whereas to the second set the compound and 10 nM elastase was added followed by a 72 h incubation period at 37° C. and 5% CO2. The proliferation was detected using the MTT assay (ATCC). At the end of the incubation period the MTT reagent was added to all samples for 4 h. Lysis of the cells followed by addition of the detergent was done overnight. The formed dye was detected at 570 nm. The proliferation of untreated but otherwise identically handled cells was define as the […].

NCI H292 [2] = experiment: Cytotoxicity assay (Version 2), automated, AC50, with or without elastase; assay type: cell-based, human
Procedure: as §1
(§2) The Cytotoxicity assay (Version 2) was performed as above described. Some changes were applied as the assays were performed in an automated fashion and the IC50 values determination was changed. Here the change in metabolic activity of the cells, in percent, was calculated by normalization of the measured values to the absorbance values of medium containing wells without cells (=−100%) and the absorbance of the DMSO-treated cells (=0%). AC50 values (activity concentration at −50%) were determined by means of a 4 parameter Hill-fit using GeneData Screener software.

786-O [3] = experiment: as above; assay type: cell-based, human
Procedure: as §1, §2

HT29 [4] = experiment: as above; assay type: cell-based, human
Procedure: as §1, §2

SUM149 [5] = experiment: as above; assay type: cell-based
Procedure: as §1, §2

NCI H292 [6] = experiment: Cytotoxicity in vitro in the presence and absence of elastase (MTT); assay type: cell-based, human
Procedure: as §1

786-O [7] = experiment: as above; assay type: cell-based, human
Procedure: as §1

HT29 [8] = experiment: as above; assay type: cell-based, human
Procedure: as §1

[9] = NCI H292 cells, Version 2, with elastase, activity concentration at −50%, read-out: NCI H292 AC50 +elastase
[10] = NCI H292 cells, Version 2, without elastase, activity concentration at −50%, read-out: NCI H292 AC50 −elastase
[11] = 786-O cells, Version 2, with elastase, activity concentration at −50%, read-out: 786-O AC50 +elastase
[12] = 786-O cells, Version 2, without elastase, activity concentration at −50%, read-out: 786-O AC50 −elastase
[13] = HT29 cells, Version 2, with elastase, activity concentration at −50%, read-out: HT29 AC50 +elastase
[14] = HT29 cells, Version 2, without elastase, activity concentration at −50%, read-out: HT29 AC50 −elastase
[15] = SUM149 cells, Version 2, with elastase, activity concentration at −50%, read-out: SUM149 AC50 +elastase
[16] = SUM149 cells, Version 2, without elastase, activity concentration at −50%, read-out: SUM149 AC50 −elastase
[17] = read-out: NCI H292 AC50 +elastase
[18] = read-out: NCI H292 AC50 −elastase
[19] = read-out: SUM149 AC50 +elastase
[20] = read-out: SUM149 AC50 −elastase

Structure (SMILES) | AC50 (NCI H292 [2]; [9]) | AC50 (NCI H292 [2]; [10]) | AC50 (786-O [3]; [11]) | AC50 (786-O [3]; [12]) | AC50 (HT29 [4]; [13]) | AC50 (HT29 [4]; [14]) | AC50 (SUM149 [5]; [15]) | AC50 (SUM149 [5]; [16]) | AC50 (NCI H292 [2]; [17]) | AC50 (NCI H292 [2]; [18]) | AC50 (786-O [3]; read-out: 786-O AC50 +elastase) | AC50 (786-O [3]; read-out: 786-O AC50 −elastase) | AC50 (HT29 [4]; read-out: HT29 AC50 +elastase) | AC50 (HT29 [4]; read-out: HT29 AC50 −elastase) | AC50 (SUM149 [5]; [19]) | AC50 (SUM149 [5]; [20]) | further results
CCCNC(=O)Nc1cccc(S(=O)(=O)Nc2cccc([C@@H](CC(=O)O)NC(=O)Nc3ccc(NC(=O)NCCOCCOCCOCCC(=O)N[C@@H](CC(=O)O)C(=O)N4CCC[C@H]4C(=O)N[C@H](C(=O)O[C@]4(CC)C(=O)OCc5c4cc4n(c5=O)Cc5c-4nc4cc(F)c(C)c6c4c5[C@@H](N)CC6)C(C)C)cc3)c2)c1 [Compound 4b, disodium (1S,9S)-1-amino-9-ethyl-5-fluoro-4-methyl-10,13-dioxo-2,3,9,10,13,15-hexahydro-1H,12H-benzo[de]pyrano[3′,4′:6,7]indolizino[1,2-b]quinolin-9-yl 1-{(2S)-2-(carboxylatomethyl)-17-[4-({[(1R)-2-carboxylato-1-{3-[({3-[(propylcarbamoyl)amino]phenyl}sulfonyl)amino]phenyl}ethyl]carbamoyl}amino)anilino]-4,17-dioxo-7,10,13-trioxa-3,16-diazaheptadecan-1-oyl}-L-prolyl-L-valinate] | 1.1 to 10 nM | > 100 nM | 1.1 to 10 nM | > 100 nM | 1.1 to 10 nM | > 100 nM | < 1 nM | 11 to 100 nM | – | – | – | – | – | – | – | – | IC50 (SUM149 [1]; SUM149 cells, with 10 nM elastase, 72 h, MTT, read-out: SUM149 IC50 w elastase): < 0.01 nM; IC50 (SUM149 [1]; SUM149 cells, without elastase, 72 h, MTT, read-out: SUM149 IC50 w/o): 1.1 to 10 nM; IC50 (NCI H292 [6]; NCI H292 cells, with 10 nM elastase, 72 h, MTT, read-out: NCI H292 IC 50 w elastase): 0.01 to 0.1 nM; IC50 (NCI H292 [6]; NCI H292 cells, without elastase, 72 h, MTT, read-out: NCI H292 IC 50 w/o): 1.1 to 10 nM; IC50 (786-O [7]; 786-O cells, with 10 nM elastase, 72 h, MTT, read-out: 786-O IC50 w elastase): 0.01 to 0.1 nM; IC50 (786-O [7]; 786-O cells, without elastase, 72 h, MTT, read-out: 786-O IC50 w/o): 10 to 100 nM; IC50 (HT29 [8]; HT29 cells, with 10 nM elastase, 72 h, MTT, read-out: HT29 IC50 w elastase): 0.1 to 1 nM; IC50 (HT29 [8]; HT29 cells, without elastase, 72 h, MTT, read-out: HT29 IC50 w/o): 10 to 100 nM
CCCNC(=O)Nc1cccc(S(=O)(=O)Nc2cccc([C@@H](CC(=O)O)NC(=O)Nc3ccc(NC(=O)NCCOCCOCCOCCC(=O)N[C@@H](CC(=O)O)C(=O)N4CCC[C@H]4C(=O)N[C@H](C(=O)O[C@]4(CC)C(=O)OCc5c4cc4n(c5=O)Cc5cc6cc7c(cc6nc5-4)OCO7)C(C)C)cc3)c2)c1 [Compound 5, (7S)-7-ethyl-8,11-dioxo-7,8,11,13-tetrahydro-2H,10H-[1,3]dioxolo[4,5-g]pyrano [3′,4′:6,7]indolizino[1,2-b]quinolin-7-yl N-(14-{4-[({(1R)-2-carboxy-1-[3-({3-[(propylcarbamoyl)amino]benzene-1-sulfonyl}amino)phenyl]ethyl}carbamoyl)amino]anilino}-14-oxo-4,7,10-trioxa-13-azatetradecanan-1-oyl)-L-alpha-aspartyl-L-prolyl-L-valinate-bis sodium salt] | – | – | – | – | – | – | – | – | < 1 nM | > 100 nM | 1.1 to 10 nM | > 100 nM | 1.1 to 10 nM | > 100 nM | < 1 nM | 11 to 100 nM | IC50 (SUM149 [1]; read-out: SUM149 IC50 w elastase): < 0.01 nM; IC50 (SUM149 [1]; read-out: SUM149 IC50 w/o): 1.1 to 10 nM; IC50 (NCI H292 [6]; read-out: NCI H292 IC 50 w elastase): < 0.01 nM; IC50 (NCI H292 [6]; read-out: NCI H292 IC 50 w/o): 1.1 to 10 nM; IC50 (786-O [7]; read-out: 786-O IC50 w elastase): < 0.01 nM; IC50 (786-O [7]; read-out: 786-O IC50 w/o): 1.1 to 10 nM; IC50 (HT29 [8]; read-out: HT29 IC50 w elastase): < 0.01 nM; IC50 (HT29 [8]; read-out: HT29 IC50 w/o): 10 to 100 nM
CCCNC(=O)Nc1cccc(S(=O)(=O)Nc2cccc([C@@H](CC(=O)O)NC(=O)Nc3ccc(NC(=O)NCCOCCOCCOCCC(=O)N[C@@H](CC(=O)O)C(=O)N4CCC[C@H]4C(=O)N[C@H](C(=O)O[C@]4(CC)C(=O)OCc5c4cc4n(c5=O)Cc5c-4nc4cc(F)c(C)c6c4c5[C@@H](N(C)C)CC6)C(C)C)cc3)c2)c1 [Compound 20, (1S,9S)-1-(dimethylamino)-9-ethyl-5-fluoro-4-methyl-10,13-dioxo-2,3,9,10,13,15-hexahydro-1H,12H-benzo[de]pyrano[3′,4′:6,7]indolizino[1,2-b]quinolin-9-yl N-(14-{4-[({(1R)-2-carboxy-1-[3-({3-[(propylcarbamoyl)amino]benzene-1-sulfonyl}amino)phenyl]ethyl}carbamoyl)amino]anilino}-14-oxo-4,7,10-trioxa-13-azatetradecanan-1-oyl)-L-alpha-aspartyl-L-prolyl-L-valinate] | 1.1 to 10 nM | > 100 nM | 1.1 to 10 nM | > 100 nM | 11 to 100 nM | > 100 nM | 1.1 to 10 nM | > 100 nM | – | – | – | – | – | – | – | – | –
CCCNC(=O)Nc1cccc(S(=O)(=O)Nc2cccc([C@@H](CC(=O)O)NC(=O)Nc3ccc(NC(=O)NCCOCCOCCOCCC(=O)NCCCC[C@H](NC(=O)CCOCCOCCOCCNC(=O)Nc4ccc(NC(=O)N[C@H](CC(=O)O)c5cccc(NS(=O)(=O)c6cccc(NC(=O)NCCC)c6)c5)cc4)C(=O)NCCOCCOCCOCCC(=O)N[C@@H](CC(=O)O)C(=O)N4CCC[C@H]4C(=O)N[C@H](C(=O)O[C@]4(CC)C(=O)OCc5c4cc4n(c5=O)Cc5cc6cc7c(cc6nc5-4)OCO7)C(C)C)cc3)c2)c1 [Compound 22] | – | – | – | – | – | – | – | – | < 1 nM | 1.1 to 10 nM | < 1 nM | > 100 nM | 1.1 to 10 nM | > 100 nM | < 1 nM | 11 to 100 nM | –
CCCNC(=O)Nc1cccc(S(=O)(=O)Nc2cccc([C@@H](CC(=O)O)NC(=O)Nc3ccc(NC(=O)NCCOCCOCCOCCC(=O)NCCCC[C@H](NC(=O)CCOCCOCCOCCNC(=O)Nc4ccc(NC(=O)N[C@H](CC(=O)O)c5cccc(NS(=O)(=O)c6cccc(NC(=O)NCCC)c6)c5)cc4)C(=O)NCCOCCOCCOCCC(=O)N[C@@H](CC(=O)O)C(=O)N4CCC[C@H]4C(=O)N[C@H](C(=O)O[C@]4(CC)C(=O)OCc5c4cc4n(c5=O)Cc5c-4nc4cc(F)c(C)c6c4c5[C@@H](NC(C)=O)CC6)C(C)C)cc3)c2)c1 [Compound 24] | – | – | – | – | – | – | – | – | 1.1 to 10 nM | > 100 nM | 1.1 to 10 nM | > 100 nM | 11 to 100 nM | > 100 nM | 1.1 to 10 nM | 11 to 100 nM | –
